# Test results from patent publication US20110218515A1, “Methods for Treating Acute Myocardial Infarctions and Associated Disorders” (The Regents of the University of California, priority 2009, published 2011).
# Columns and labels:
# [1] = test system: ischemia-reperfusion rat model; experiment: Optical mapping, programmed stimulation and VT inducibility of excised hearts 5 wks after MI; type: in vivo, Sprague-Dawley rats; conditions: for conduction heterogeneity vs control: all tested cycle lengths; for rise times of border zones vs control: significant at lowest PCL
# Procedure: After baseline echocardiography, thirty male Sprague-Dawley rats, ages 6-10 weeks, underwent myocardial infarction using an ischemia-reperfusion model. Briefly, rats were anesthetized using inhaled isoflurane (5% induction, 2.5% maintenance, O2 output 1 L/min) and positioned supine on an electrically warmed animal surgery platform. Rats were intubated using a 16-gauge i.v. catheter and then ventilated using a Harvard rodent respirator. After a left thoracotomy and pericardiotomy were performed, a 7-0 Ticron suture was introduced into the myocardium, using the left atrial appendage and right outflow tract as landmarks. The depth of entry was 2 mm, which was slightly greater than the level of the left coronary artery. Both suture ends were then threaded through a PE-90 polyethylene tube 6 in. in length to form a “snare loop” around the artery, closed by pulling on the free ends of the suture. […] The suture was then tightened to occlude the artery for 20 minutes and then removed to allow for reperfusion. The chest was then closed with 5-0 prolene suture, and the animal was allowed to recover. After one week and repeat echocardiography, rats were randomized to placebo rodent feed (control group, n=15) or rodent feed mixed with 1.2% pirfenidone (PFD) (treatment group, n=15) for four weeks. All experiments and data analyses were performed with the operator blinded to treatment group. Optical mapping is a technique to perform high-resolution electrophysiologic evaluation of the cardiac tissue. To summarize the procedure, ten thousand simultaneous optical action potentials were recorded with a 100×100 CMOS camera within a 19 mm×19 mm mapping field on the epicardium of the LV anterior wall. Using a 1000-W tungsten-halogen light source, fluorescence was excited with an excitation filter of 530 nm and transmitted with an emission long-pass filter of >630 nm. Fluorescent optical maps were acquired at 2000 Hz during programmed electrical stimulation. Optical mapping was performed 5 wks after MI. Rats were injected with heparin (500 U ip) 15 min before excision of the heart, and were then anesthetized with pentobarbital sodium (50 mg/kg ip). After adequate anesthesia, the heart was rapidly excised and arrested by immersion in cold cardioplegia solution. The aorta was cannulated and retrogradely perfused, at a rate of 6 mL/min, with 37° C. modified Tyrode solution containing (in mmol/L): 130 NaCl, 20.0 NaHCO3, 1.2 MgCl2, 4.0 KCl, 5.6 glucose, and 1.8 CaCl2, gassed with 95% 02/5% C02. Extraneous tissue was carefully removed from the heart. The cannulated heart was then placed in 37° C. Tyrode solution in a specialized temperature-controlled optical recording chamber (maintained at 37° C.) while ECG, perfusion rate, and temperature were measured continuously for the duration of the experiment. Before optical recordings, Tyrode solution containing voltage-sensitive dye PGH I (10 μL of 5 mM stock solution) was perfused through the preparation over a 5-min period. Once a cannulated heart was perfused with PGH I, it was placed in the optical chamber with its LV anterior wall pressed against the imaging window. […] During optical recordings, contractility was blocked with 15 mM butadione monoxime (BDM). Ventricular epicardium bipolar pacing, at a stimulus amplitude of 2× threshold, was performed on normal tissue near the infarct zone. Mapping was recorded during pacing drives of 250 ms to 90 ms (decremented by 10 ms), as well as during S1-S2 pacing using a basic cycle length (BCL) of 200 ms and maximum S2 of 150 ms and decremented by 10 ms. Programmed stimulation, with up to three extrastimuli, and burst pacing (from 90 ms to 60 ms) were used to assess arrhythmia inducibility. Inducibility was defined as the ability to provoke sustained (>30 s) ventricular tachycardia (VT) or ventricular fibrillation. Maps were also captured during programmed stimulation and with all episodes of arrhythmia. […]
# [2] = test system: ischemia-reperfusion rat model; experiment: Histological analysis of infarct size and fibrosis; type: in vivo, Sprague-Dawley rats
# Procedure: After baseline echocardiography, thirty male Sprague-Dawley rats, ages 6-10 weeks, underwent myocardial infarction using an ischemia-reperfusion model. Briefly, rats were anesthetized using inhaled isoflurane (5% induction, 2.5% maintenance, O2 output 1 L/min) and positioned supine on an electrically warmed animal surgery platform. Rats were intubated using a 16-gauge i.v. catheter and then ventilated using a Harvard rodent respirator. After a left thoracotomy and pericardiotomy were performed, a 7-0 Ticron suture was introduced into the myocardium, using the left atrial appendage and right outflow tract as landmarks. The depth of entry was 2 mm, which was slightly greater than the level of the left coronary artery. Both suture ends were then threaded through a PE-90 polyethylene tube 6 in. in length to form a “snare loop” around the artery, closed by pulling on the free ends of the suture. […] The suture was then tightened to occlude the artery for 20 minutes and then removed to allow for reperfusion. The chest was then closed with 5-0 prolene suture, and the animal was allowed to recover. After one week and repeat echocardiography, rats were randomized to placebo rodent feed (control group, n=15) or rodent feed mixed with 1.2% pirfenidone (PFD) (treatment group, n=15) for four weeks. All experiments and data analyses were performed with the operator blinded to treatment group.
# Ventricular tissue samples were fixed in 10% neutral buffered formalin. The samples were embedded in paraffin, sectioned (10-μm thick), and then stained with Masson's trichrome or Sirius red with fast green counterstain. Stained slides were examined under light microscopy, digitized using a high-resolution scanner, and analyzed using Photoshop CS software. Infarct areas on Masson's trichome corresponded tightly with areas of dense Sirius red staining with minimal to no fast green. Infarct scar area and total area of left ventricular myocardium, for all sections, were manually traced in the digital images and automatically calculated by the software. Infarct size, expressed as a percentage, was measured by dividing the sum of infarct areas from all sections by the sum of LV areas from all sections and multiplying by 100.
# The total area of fibrosis was also assessed. After excluding the infarct area (defined as dense fibrosis), fibrosis in the border and non-infarct zones was quantified from digital photomicrographs of the Sirius red-stained sections. Areas containing blood vessels and perivascular interstitial cells were also excluded from fibrosis quantification. The red pixel content of digitized images relative to the total tissue area was counted by using the Adobe Photoshop CS software.
# [3] = test system: ischemia-reperfusion rat model; conditions: in vivo
# Procedure: After baseline echocardiography, thirty male Sprague-Dawley rats, ages 6-10 weeks, underwent myocardial infarction using an ischemia-reperfusion model. Briefly, rats were anesthetized using inhaled isoflurane (5% induction, 2.5% maintenance, O2 output 1 L/min) and positioned supine on an electrically warmed animal surgery platform. Rats were intubated using a 16-gauge i.v. catheter and then ventilated using a Harvard rodent respirator. After a left thoracotomy and pericardiotomy were performed, a 7-0 Ticron suture was introduced into the myocardium, using the left atrial appendage and right outflow tract as landmarks. The depth of entry was 2 mm, which was slightly greater than the level of the left coronary artery. Both suture ends were then threaded through a PE-90 polyethylene tube 6 in. in length to form a “snare loop” around the artery, closed by pulling on the free ends of the suture. […] The suture was then tightened to occlude the artery for 20 minutes and then removed to allow for reperfusion. The chest was then closed with 5-0 prolene suture, and the animal was allowed to recover. After one week and repeat echocardiography, rats were randomized to placebo rodent feed (control group, n=15) or rodent feed mixed with 1.2% pirfenidone (PFD) (treatment group, n=15) for four weeks. All experiments and data analyses were performed with the operator blinded to treatment group. […]
# [4] = test system: TNF-α, TGF-β1, bFGF, PDGF, and EGF; conditions: literature report; cited from earlier work
compound,measurement,setting,value
Cc1ccc(=O)n(-c2ccccc2)c1 [pirfenidone],fluorescence amplitude in the border zones vs control,[1],trend toward higher amplitudes
same,decrease in VT susceptibility vs control,[1]; 5 wks after MI,almost three-fold decrease
same,rate of VT induction,"[1]; 5 wks after MI, controls 73.3%, p=0.027",28.6%
same,conduction velocities in the border zones vs control,"[1]; all pacing cycle lengths, p<0.05",significantly faster
same,conduction heterogeneity vs control,[1]; p=0.146,trend toward lower conduction heterogeneity
same,conduction heterogeneity vs control,"[1]; p=0.146, listed as PFD",trend toward higher conduction heterogeneity indices in control animals
same,maximal rate of AP rise (dF/dt) of border zones vs control,[1]; trend at all PCLs,faster than the rise of control border zones
same,rise times of border zones vs control,[1]; trend at all PCLs,shorter
same,rise times of border zones vs control,"[1]; trend at all PCLs, listed as PFD",lower than those of control border zones
same,amount of fibrosis (including border zones and non-MI areas and infarct scar),"[2]; controls 23±2%, p=0.01",13±3%
same,total amount of fibrosis and extra-infarct fibrosis,[2]; rat MI model,attenuated
same,"infarct size, percent of total myocardium","[2]; rat MI model, controls 18%±2.7%, p=0.022",10±1.9%
same,fibrosis within the infarct border zone,"[2]; rat MI model, vs control infarcts",not only decreased but its distribution appeared less heterogeneous
same,"mortality, CHF, or arrhythmias in treated animals",[3],"No increased mortality, CHF, or arrhythmias"
same,"biosynthesis or release of various cytokines such as TNF-α, TGF-β1, bFGF, PDGF, and EGF",[4],inhibit excessive biosynthesis or release
same,collagen expression,[4],decrease collagen expression
